According to PMC12344774, “Ferrocenyl Quinoline-Benzimidazole Hybrids: A Multistage Strategy to Combat Drug-Resistant Malaria” (Inorganic Chemistry, 2025):
Where two headings read alike, the source gives them in different places.

Legend:
[1] = tested on: CHO cell line
Experimental: (§1) The samples were tested over 48 h against the Chinese hamster ovarian (CHO) cell line to determine general cytotoxicity. […] Quantitative assessment of toxic activity in vitro was determined via the MTT assay using the method described. Cell viability was determined colorimetrically using the breakdown of a dye by enzymes of the electron transport chain, taking place in the mitochondria of metabolically active living cells, as a marker for survival.
(§2) Compounds were tested in triplicate on a single occasion against these cells using the MTT assay. The test samples were prepared to a 10 mM stock solution, in 100% DMSO, and stored at −20 °C until use. Samples were tested as a suspension if not completely dissolved. Further dilutions to the desired starting concentration were freshly prepared in growth media at the start of the experiment.
(§3) Cells were plated to a density of 10^5 cells/well in 96-well plates and allowed to attach for 24 h. […] After 44 h MTT was added, and the plates were read 4 h later at 540 nm on a spectrophotometer following the addition of 100 μL of DMSO and gentle plate-shaking to solubilize and visualize the dye. Survival was plotted against concentration, and the IC50 values were obtained using a nonlinear dose–response curve fitting analysis via the Dotmatics software platform.

[2] = Cyclic voltammetry of the ferrocene/ferrocenium couple; type: physicochemical; conditions: for Reversibility of the ferrocene/ferrocenium couple: DCM/0.1 M TBAP system
Experimental: It has been proposed that the oxidation of ferrocene (Fe(C5H5)2) to the ferrocenium cation (Fe(C5H5)2 ^+) is a reversible one-electron transfer process. […] This prompted the investigation into the electrochemical properties of the Fe(C5H5)2/Fe(C5H5)2 ^+ couple in complexes C1–C5, using cyclic voltammetry. FQ was used as the reference, as it is considered the benchmark for all newly developed ferrocenyl-based antiplasmodials.
Nuclear magnetic resonance (NMR) spectra were recorded on a Bruker XR600 MHz spectrometer (^1H at 599.95 MHz and ^13C{^1H} at 151.0 MHz), a Bruker […] (^1H at 400.22 MHz and ^13C{^1H} at 100.65 MHz), or a Varian Mercury 300 (^1H at 300.08 MHz) spectrometer. These were equipped with a Bruker Biospin GmbH casing and sample injector at 30 °C and tetramethylsilane (TMS) was used as the internal standard. Coupling constants are reported in Hz and chemical shifts are reported in ppm relative to residual solvent signals. Infrared (IR) spectroscopy was performed on a PerkinElmer Spectrum 100 FT-IR spectrometer, using attenuated total reflectance (ATR), with vibrations measured in units of cm^–1. Cyclic voltammetric measurements were carried out at ambient temperature under an inert argon atmosphere using a three-electrode system on a BASi Epsilon Eclipse potentiostat/galvanostat electrochemical workstation. The C-3 cell stand, equipped with a glassy carbon working electrode, Ag/AgCl (saturated NaCl) reference electrode, and a Pt wire auxiliary electrode were used to carry out electrochemical measurements. All experiments were carried out in anhydrous dichloromethane containing 0.10 M tetra-n-butylammonium perchlorate (TBAP) as the supporting electrolyte.

[3] = tested on: rodent mouse model; design: method as in Baartzes et al.; conditions: in vivo, no mice were cured; ref Baartzes et al.; cited from earlier work
[4] = tested on: K1; conditions: previous study; ref Baartzes et al.; read-out: PfIC50 (K1); cited from earlier work
[5] = tested on: whole-cell NF54 parasites
Experimental: However, unlike the cell-free assay, the heme fractionation assay isolates both the heme and Hz components via a series of solubilization and separation steps. Furthermore, the absolute amount of each heme species per cell is calculated using the UV–vis data normalized to the flow cytometry parasite cell count.
The IC50 was previously determined using the pLDH assay. Following incubation for 28–32 h, to ensure progression to the trophozoite stage, parasitized red blood cells were saponin lysed to obtain isolated trophozoites. To determine the amount of heme and hemozoin, the trophozoites were then exposed to a series of cellular fractionation steps to successively liberate each heme species. The UV–visible spectra of these fractions were recorded between 400 and 415 nm on a multiwell plate reader. The percentage of each heme species was determined from the absorbance value of the Soret band of the pyridyl heme complex. To determine the absolute levels of each species, an aliquot of the isolated trophozoites was spiked with Trucount beads and stained with SYBR Green. These were run on a flow cytometer to determine absolute counts, which could in turn be used to calculate the absolute levels of each species per cell. The total heme in each of these samples was quantified using a standard curve. GraphPad Prism (v5) was used to analyze the final data set and perform the significance tests.

[6] = tested on: CHO cell line; assay: Cytotoxicity, MTT assay
Experimental: as §1, §2, §3

[7] = scan rate 100 mV/s, CH2Cl2, 0.1 M TBAP
[8] = vs Ag/AgCl, scan rate 100 mV/s, CH2Cl2, 0.1 M TBAP

SMILES	CC50 [1] [µM]	Reversibility of the ferrocene/ferrocenium couple [2]	Ipc/Ipa [2, 7]	ΔE [2, 7] [V]	Anodic peak potential Epa [2, 8] [V]	Cathodic peak potential Epc [2, 8] [V]	Half-wave potential E1/2 [2, 8] [V]	Reduction in parasitemia [3] [%]	IC50 [4] [µM]	Hemozoin (Hz) Fe level per cell versus untreated control ([5]; NF54 parasites at 3× IC50)	Free heme level per cell ([5]; NF54 parasites, 0.5–1.5× the IC50 value)	CC50 ([6]; read-out: CC50 (CHO) ± SEM, MTT, 48 h, technical triplicate on a single occasion) [µM]	SI (CC50 CHO/IC50 NF54) ([6]; selectivity index)
Cc1ccc2c(c1)nc(-[c-]1cccc1)n2CCCNc1ccnc2cc(Cl)ccc12.[Fe+2].c1cc[cH-]c1 [Complex C1, 7-chloro-N-(3-(5-(methyl)-2-ferrocenyl-1H-benzo[d]imidazole-1-yl)propyl)quinolin-4-amine]	43.7 ± 2.5	chemically and electrochemically reversible	1.04	0.127	0.638	0.510	0.574	92	0.283	–	–	–	–
Cc1ccc2c(c1)nc(-[c-]1cccc1CN(C)C)n2CCCNc1ccnc2cc(Cl)ccc12.[Fe+2].c1cc[cH-]c1 (stereo not drawn) [Complex C3, 7-Chloro-N-(3-(5-methyl-2-(2-N,N-dimethylaminomethyl)ferrocenyl-1H-benzo[d]-imidazole-1-yl)propyl) Quinoline-4-amine]	–	chemically and electrochemically irreversible	–	–	0.678	–	–	–	–	more than five times lower	steadily increased	6.1 ± 1.2	244.4
